From patent US20250179037A1 (Jiangsu Jibeier Pharmaceutical Co., Ltd., priority 2021, published 2025)
Values after ≈ are worked out from the molar mass of the structure shown. Marks after values point to notes of the source that are not given here.

Experiments:
[1] = Test on saturated solubility in water (HPLC); type: physicochemical; settings: for Solubility in 1 h / Solubility in 2 h / Solubility in 18 h: 37° C.; for solubility property (compared with crystalline form C): conclusion from water saturation solubility table
Protocol: Test on Saturated Solubility in Water:
• Chromatographic column: KromasiL C18 4.6*250 mm, 5 m • Column temperature: 30° C. flow rate: 1.0 mL/min sample size: 20 μL detection wavelength: 210 nm • Mobile phase: acetonitrile-water-glacial acetic acid (42:58:0.3) • Formulation of control solution: 10 mg of leucogen as a control product was precisely weighed, put in a 100-mL measuring flask, dissolved with the mobile phase, and diluted to the scale to afford 100 μg/mL of mother solution, and the mother solution was subjected to 10-fold, 100-fold, and 1000-fold serial dilutions to afford solutions at the concentrations of 10 μg/mL, 1 μg/mL, and 0.1 μg/mL, respectively.
Formulation of test solution: about 20 mg of 211118 batch (crystalline form A) and 211124 batch (crystalline form B) of the leucogen samples were weighed, each for 3 copies, and put in six 10-mL test tubes with stoppers respectively; 10 mL of water was added respectively; the test tubes were oscillated under the conditions of 37° C. and 100 r/min for 1 h, 2 h, and 18 h respectively; the resultants were filtered through 0.45-μm microporous filter membranes, and the filtrates were taken as the test solutions.
The control solution and the test solutions were tested under the above chromatographic conditions, separately. The area of the control solution was linearly regressed with its concentration. The saturated solubility in water was obtained from the peak areas of the test solutions.

[2] = TGA/DSC test (thermostability); type: physicochemical; settings: for thermostability (compared with crystalline form C): conclusion from TGA/DSC table
Description: TGA and DSC Test Methods:
TGA and DCS patterns were collected on TA Discovery TGA 5500 thermogravimetric analyzer and TA Discovery DSC 2500 differential scanning calorimeter, respectively.

[3] = test system: mice leukopenia models (peripheral blood leukocytes); assay: Cyclophosphamide-induced mice leukopenia model, leukocyte counts; type: in vivo, male Balb/C mice; settings: for Leukocyte Level, End of treatment: 30 mg/kg intragastric once daily for 28 days, Day 29; for Leukocyte Level, End of treatment / Leukocyte Level, Before modeling / Leukocyte Level, After modeling: X ± S; for Leukocyte Level, Before modeling / Leukocyte Level, After modeling: 30 mg/kg intragastric once daily; for Leukocyte Level, Before modeling: Day 7 after drug administration; for Leukocyte Level, After modeling: Day 15, cyclophosphamide 25 mg/kg i.p. Day 8 to Day 14; for leucocyte levels after treatment, compared to the model control group / effect on leucocyte level compared to the leucogen crystalline form C group: 30 mg/kg, P<0.05, after treatment
Protocol: A total of 100 male Balb/C mice with the body weight ranging from 22 g to 24 g were randomly selected and randomly divided into the following five groups: the normal control group, the model control group, the leucogen crystalline form A group, the leucogen crystalline form B group, and the leucogen crystalline form C group, 20 mice in each group. In the leucogen crystalline forms A, B and C groups, the mice were intragastrically administered with 30 mg/kg once daily for a total of 28 days. In the normal control group and the model control group, the mice were administered with an equal volume of saline once daily for a total of 28 days. In the model control group and the leucogen groups, 25 mg/kg of cyclophosphamide was intraperitoneally injected in the mice at Day 8 to Day 14 respectively to establish mice leukopenia models. Blood samples were collected from the retro-orbital venous sinus of mice before modeling, after modeling, and at the end of drug administration (i.e., Day 7, Day 15, and Day 29 after drug administration) for leukocyte counts, respectively. The experimental data were statistically processed with the SPSS 17.0 software package, and expressed as mean±standard deviation (X±S), where P<0.05 indicated there was a statistical significance.

[4] = water, 100 r/min, oscillated 1 h
[5] = water, 100 r/min, oscillated 2 h
[6] = water, 100 r/min, oscillated 18 h
[7] = listed as Leucogen crystalline form C
[8] = listed as Leucogen crystalline form A
[9] = listed as Leucogen crystalline form B

## CCOC(=O)C(c1ccccc1)C1N[C@H](C(=O)O)CS1 (single isomer, unassigned) [reference compound]
[1]; [4]
  Solubility in 1 h: 112.64 µg/mL (≈ 381 µM)
[1]; [5]
  Solubility in 2 h: 133.16 µg/mL (≈ 451 µM)
[1]; [6]
  Solubility in 18 h: 227.89 µg/mL (≈ 772 µM)
[2]; 70° C.
  TGA Weight Loss (%): 3.54 (70° C.) %
[3]; [7]
  Leukocyte Level, End of treatment: 6.05 ± 1.56* 10^9/L
  Leukocyte Level, Before modeling: 9.98 ± 1.56 10^9/L
  Leukocyte Level, After modeling: 3.32 ± 0.89 10^9/L
[3]
  leucocyte levels after treatment, compared to the model control group: significantly increased

## CCOC(=O)C(c1ccccc1)C1N[C@H](C(=O)O)CS1 (some centres unmarked)
[1]
  solubility property (compared with crystalline form C): better than that of the crystalline form C
[1]; water, 37 °C, thermodynamic from solid
  solubility: ≥ 240 µg/mL
[1]; water, 37 °C, thermodynamic from solid, 100 r/min, oscillated 1 h
  solubility at 1 h: 115 µg/mL (≈ 390 µM)
[1]; water, 37 °C, thermodynamic from solid, 100 r/min, oscillated 2 h
  solubility at 2 h: 137 µg/mL (≈ 465 µM)
[1]; water, 37 °C, thermodynamic from solid, 100 r/min, oscillated 18 h
  solubility at 18 h: 241 µg/mL (≈ 816 µM)
[2]; 100° C.
  TGA Weight Loss (%): 3.07 (100° C.) %
[2]
  thermostability (compared with crystalline form C): better than that of the crystalline form C
[3]; [8]
  Leukocyte Level, End of treatment: 9.23 ± 1.42*^Δ 10^9/L
  Leukocyte Level, Before modeling: 9.92 ± 1.59 10^9/L
  Leukocyte Level, After modeling: 3.31 ± 1.43 10^9/L
[3]
  effect on leucocyte level compared to the leucogen crystalline form C group: better effect
  leucocyte levels after treatment, compared to the model control group: significantly increased

## CCOC(=O)C(c1ccccc1)C1N[C@H](C(=O)O)CS1 (single isomer, unassigned)
[1]
  solubility property (compared with crystalline form C): better than that of the crystalline form C
[1]; listed as crystalline form B of leucogen
  solubility in water: ≥ 256 µg/mL
[1]; [4]
  Solubility in 1 h: 161.68 µg/mL (≈ 547 µM)
[1]; [5]
  Solubility in 2 h: 177.41 µg/mL (≈ 601 µM)
[1]; [6]
  Solubility in 18 h: 256.62 µg/mL (≈ 869 µM)
[2]; 150° C.
  TGA Weight Loss (%): 0.46 (150° C.) %
[2]
  thermostability (compared with crystalline form C): better than that of the crystalline form C
[3]; [9]
  Leukocyte Level, End of treatment: 8.98 ± 1.13*^Δ 10^9/L
  Leukocyte Level, Before modeling: 9.63 ± 0.99 10^9/L
  Leukocyte Level, After modeling: 3.46 ± 1.24 10^9/L
[3]
  effect on leucocyte level compared to the leucogen crystalline form C group: better effect
  leucocyte levels after treatment, compared to the model control group: significantly increased
